Results reported in patent US4963581A, “Naphthopyran derivatives and use thereof” (Takeda Chemical Industries, Ltd., priority 1988, dated 1990).

Assays:
[1] = system: various enzymes involved in the biosynthesis of steroid hormones; settings: background statement in words; cited from earlier work
[2] = molecular target: T1, Human placental aromatase (Homo sapiens, UniProt P11511); test: In vitro human placental aromatase inhibiting activity; type: biochemical; settings: substrate androstenedione 4 μM, 37° C., 1 hour
T1 construct: the pellet thus obtained was used as a microsome fraction; from tissue; host or cells: human placenta, microsome fraction
T1 sequence (P11511 1-503): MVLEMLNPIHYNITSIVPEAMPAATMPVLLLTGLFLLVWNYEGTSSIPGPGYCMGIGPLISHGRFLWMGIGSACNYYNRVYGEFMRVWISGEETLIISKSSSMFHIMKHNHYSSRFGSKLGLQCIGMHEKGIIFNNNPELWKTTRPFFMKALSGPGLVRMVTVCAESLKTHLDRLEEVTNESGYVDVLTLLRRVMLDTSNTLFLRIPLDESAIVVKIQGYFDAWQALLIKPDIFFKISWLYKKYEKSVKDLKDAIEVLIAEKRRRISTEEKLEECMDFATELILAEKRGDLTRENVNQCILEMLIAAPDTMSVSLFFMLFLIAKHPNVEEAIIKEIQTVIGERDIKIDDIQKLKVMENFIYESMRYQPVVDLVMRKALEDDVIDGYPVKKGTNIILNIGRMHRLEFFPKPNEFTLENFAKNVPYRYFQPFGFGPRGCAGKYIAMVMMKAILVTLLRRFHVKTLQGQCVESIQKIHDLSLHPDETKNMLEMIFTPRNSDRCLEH
Description: Preparation of human placental microsome:
The method of F. A. Thompson et al. [Journal of Biological Chemistry, 249, 5364 (1974)]was partly modified. Thus, a placenta was washed with cooled 0.15 M KCl and, after removal of adhering membranes and great blood vessels, minced to sufficiently small pieces by means of scissors. To the minced tissue was added cold 0.02 M phosphate buffer (pH 7.4) containing 0.25 M sucrose in an amount of 1 ml per 1 g of tissue, the mixture was homogenized with a Polytron homogenizer (30 seconds, three times, in ice) and then centrifuged at 800×g for 10 minutes, the supernatant was subjected to centrifugation at 20,000×g for 30 minutes, followed by further centrifugation at 148,000×g for 45 minutes, and the pellet thus obtained was used as a microsome fraction. The microsome obtained was suspended in the same phosphate buffer as mentioned above in a concentration corresponding to 10 g of wet placenta per ml. The suspension was stored at -80° C. and, just prior to use, diluted 5 to 6 times.
Aromatase activity measurement and inhibitory activity:
The method of F. A. Thompson et al. (vide supra) was partly modified as follows:
A reaction solution ([…]) containing 4 μM 4-androstene-3,17-dione, 140,000 dpm, 1,2[^3 H]-androstenedione, 550 μM NADPH, 20 μl of the above microsome and 5 μl of buffer or 5 μl of an inhibitor-containing solution was incubated at 37° C. for 1 hour. In this measurement system, aromatization of androstenedione gives [^3 H]--H2 O. Therefore, this reaction mixture was extracted with 0.5 ml of chloroform for separation, the aqueous layer obtained was treated with 0.25 ml of 5% active carbon for removal of free steriods and then subjected to low speed centrifugation. A scintillator (3 ml) was added to 0.2 ml of the supernatant, and the radioactivity was measured by means of a liquid scintillation counter. The percent inhibition (%) was determined by comparing the result thus obtained with the result for a control sample as obtained without adding any inhibitor. The activity was expressed in terms of IC50 (μg/ml), namely the inhibitor concentration required for 50% inhibition of the enzyme activity at the substrate (androstenedione) concentration of 4 μM.

estrogen synthesis [3] = test: Estrogen synthesis inhibition in rats (PMSG-stimulated); type: in vivo, young SD rats; settings: 4 days, Mean ± SD
Description: Groups of five young SD rats ([…], 19 days old) were used. Test groups were administered subcutaneously with the test compounds suspended in 0.2% gum arabic-containing physiological saline in a dose of 25 mg/kg or 50 mg/kg at 24-hour intervals for consecutive 4 days. Non-test groups (control groups […]) were administered with 0.2 ml of 0.2% gum arabic-containing physiological saline. On the third day after initiation of the test, a single dose of pregnant mare serum gonadotropin (PMSG) was administered subcutaneously in a dose of 10 U/rat to the test groups and to the control group 2, following the administration of the test compounds. […] The plasma samples thus obtained were subjected to plasma estradiol-17B level determination by radioimmunoassay. The uterus and ovaries were excised from each rat and, after removal of superfluous connective tissues, weighed. The results thus obtained are shown in Table 2.4-Hydroxyandrostenedione (4-OHA) was used as a reference compound for the pharmacological effect evaluation.
*P < 0.05, **P < 0.02, ***P < 0.01, ****<0.001 against PMSG group

estrogen synthesis [4] = test: as above; type: in vivo, young SD rats; settings: Test I, 100 mg/kg/day s.c., 4 days, Mean ± SD
[5] = Test I, 25 mg/kg/day s.c., PMSG control 568.6 ± 69.7
[6] = Test I, 50 mg/kg/day s.c., PMSG control 568.6 ± 69.7
[7] = Test II, 25 mg/kg/day s.c., PMSG control 240.0 ± 34.9
[8] = Test II, 50 mg/kg/day s.c., PMSG control 240.0 ± 34.9

For CCC1(c2ccc(N)cc2)CCC(=O)NC1=O (centres unmarked) [Aminoglutethimide], the “inhibition of various enzymes involved in the biosynthesis of steroid hormones” value [1] is listed as “inhibits various enzymes involved in the biosynthesis of steroid hormones”.

For COC1=C(C2=C(OC)C(=O)c3cc4c(c(O)c3C2=O)C(=O)OC(C)C4)C(=O)c2c(cc3c(c2O)C(=O)OC(C)C3)C1=O (centres unmarked) [Compound 1, xanthomegnin], the IC50 [2] was 8.18 µM, the Body weight gain (estrogen synthesis [3]; Test I, 25 mg/kg/day s.c.) was 22.4 ± 3.1 g and the “Tissue weight, Ovaries” value (estrogen synthesis [3]; Test I, 25 mg/kg/day s.c.) was 23.7 ± 3.4 mg. For the same compound, the “Tissue weight, Uterus” value (estrogen synthesis [3]; Test I, 25 mg/kg/day s.c.) was 88.9 ± 9.0 mg, the “Plasma estradiol-17β level” value (estrogen synthesis [3]; [5]) was 204.7 ± 67.0 pg/mL and the Body weight gain (estrogen synthesis [3]; Test I, 50 mg/kg/day s.c.) was 21.4 ± 2.7 g. The “Tissue weight, Ovaries” value (estrogen synthesis [3]; Test I, 50 mg/kg/day s.c.) was 25.5 ± 5.5 mg, the “Tissue weight, Uterus” value (estrogen synthesis [3]; Test I, 50 mg/kg/day s.c.) was 91.9 ± 14.4 mg and the “Plasma estradiol-17β level” value (estrogen synthesis [3]; [6]) was 250.9 ± 161.1 pg/mL.

With COC1=C(C2=C(O)C(=O)c3cc4c(c(O)c3C2=O)C(=O)OC(C)C4)C(=O)c2c(cc3c(c2O)C(=O)OC(C)C3)C1=O (centres unmarked) [Compound 2, monodemethylxanthomegnin] the IC50 [2] was 24.1 µM, the “Tissue weight, Ovaries” value (estrogen synthesis [3]; Test III, 25 mg/kg/day s.c.) was 29.4 ± 7.5 mg and the “Tissue weight, Uterus” value (estrogen synthesis [3]; Test III, 25 mg/kg/day s.c.) was 115.7 ± 14.0 mg. For the same compound, the “Plasma estradiol-17β level” value (estrogen synthesis [3]; Test III, 25 mg/kg/day s.c., PMSG control 327.9 ± 126.6) was 189.5 ± 123.4 pg/mL, the “Tissue weight, Ovaries” value (estrogen synthesis [3]; Test III, 50 mg/kg/day s.c.) was 29.0 ± 2.5 mg and the “Tissue weight, Uterus” value (estrogen synthesis [3]; Test III, 50 mg/kg/day s.c.) was 106.3 ± 14.0 mg. The “Plasma estradiol-17β level” value (estrogen synthesis [3]; Test III, 50 mg/kg/day s.c., PMSG control 327.9 ± 126.6) was 195.1 ± 79.3 pg/mL.

In the case of CC1Cc2cc3c(c(O)c2C(=O)O1)C(=O)C(C1=C(O)C(=O)c2cc4c(c(O)c2C1=O)C(=O)OC(C)C4)=C(O)C3=O (centres unmarked) [Compound 3, luteosporin], the IC50 [2] is reported as 134 µM, the “Tissue weight, Ovaries” value (estrogen synthesis [3]; Test II, 25 mg/kg/day s.c.) is reported as 21.3 ± 4.4 mg and the “Tissue weight, Uterus” value (estrogen synthesis [3]; Test II, 25 mg/kg/day s.c.) is reported as 93.6 ± 22.4 mg. The “Plasma estradiol-17β level” value (estrogen synthesis [3]; [7]) was 124.1 ± 53.3 pg/mL, the “Tissue weight, Ovaries” value (estrogen synthesis [3]; Test II, 50 mg/kg/day s.c.) was 22.6 ± 5.4 mg and the “Tissue weight, Uterus” value (estrogen synthesis [3]; Test II, 50 mg/kg/day s.c.) was 115.4 ± 30.4 mg. The “Plasma estradiol-17β level” value (estrogen synthesis [3]; [8]) was 71.1 ± 23.4 pg/mL.

For CC1Cc2cc3c(c(O)c2C(=O)O1)C(=O)C(C1=C(O)C(=O)c2cc4c(c(O)c2C1=O)C(=O)OC(C)C4)=C(N)C3=O (centres unmarked) [Compound 4, plastatin], the IC50 [2] was 30.2 µM, the “Tissue weight, Ovaries” value (estrogen synthesis [3]; Test II, 25 mg/kg/day s.c.) was 20.8 ± 3.9 mg and the “Tissue weight, Uterus” value (estrogen synthesis [3]; Test II, 25 mg/kg/day s.c.) was 97.4 ± 17.8 mg. For the same compound, the “Plasma estradiol-17β level” value (estrogen synthesis [3]; [7]) was 156.0 ± 47.8 pg/mL, the “Tissue weight, Ovaries” value (estrogen synthesis [3]; Test II, 50 mg/kg/day s.c.) was 26.8 ± 4.8 mg and the “Tissue weight, Uterus” value (estrogen synthesis [3]; Test II, 50 mg/kg/day s.c.) was 86.6 ± 9.6 mg. For the same compound, the “Plasma estradiol-17β level” value (estrogen synthesis [3]; [8]) was 190.3 ± 19.9 pg/mL.

With C[C@]12CCC(=O)C(O)=C1CC[C@@H]1[C@@H]2CC[C@]2(C)C(=O)CC[C@@H]12 [Compound 4-OHA, 4-Hydroxyandrostenedione, reference compound] the Body weight gain (estrogen synthesis [4]) was 25.0 ± 1.6 g, the “Tissue weight, Ovaries” value (estrogen synthesis [3]; Test I, 100 mg/kg/day s.c.) was 24.3 ± 4.5 mg and the “Tissue weight, Uterus” value (estrogen synthesis [3]; Test I, 100 mg/kg/day s.c.) was 60.6 ± 9.0 mg. The “Plasma estradiol-17β level” value (estrogen synthesis [3]; Test I, 100 mg/kg/day s.c., PMSG control 568.6 ± 69.7) was 115.5 ± 47.4 pg/mL, the Body weight gain (estrogen synthesis [3]; Test II, 100 mg/kg/day s.c.) was 22.8 ± 1.5 g and the “Tissue weight, Ovaries” value (estrogen synthesis [3]; Test II, 100 mg/kg/day s.c.) was 22.3 ± 3.3 mg. The “Tissue weight, Uterus” value (estrogen synthesis [3]; Test II, 100 mg/kg/day s.c.) was 61.5 ± 8.2 mg, the “Plasma estradiol-17β level” value (estrogen synthesis [3]; Test II, 100 mg/kg/day s.c., PMSG control 240.0 ± 34.9) was 36.1 ± 33.0 pg/mL and the Body weight gain (estrogen synthesis [3]; Test III, 100 mg/kg/day s.c.) was 24.8 ± 0.8 g. For the same compound, the “Tissue weight, Ovaries” value (estrogen synthesis [3]; Test III, 100 mg/kg/day s.c.) was 26.3 ± 1.7 mg, the “Tissue weight, Uterus” value (estrogen synthesis [3]; Test III, 100 mg/kg/day s.c.) was 71.9 ± 8.6 mg and the “Plasma estradiol-17β level” value (estrogen synthesis [3]; Test III, 100 mg/kg/day s.c., PMSG control 327.9 ± 126.6) was 52.3 ± 21.7 pg/mL.

In the case of COC1=C(c2c(OC)cc3cc4c(c(O)c3c2O)C(=O)OC(C)C4)C(=O)c2c(cc3c(c2O)C(=O)OC(C)C3)C1=O (centres unmarked) [Compound 5, viomellein], the IC50 [2] is reported as 130 µM, the Body weight gain (estrogen synthesis [3]; Test II, 25 mg/kg/day s.c.) is reported as 22.8 ± 1.8 g and the “Tissue weight, Ovaries” value (estrogen synthesis [3]; Test II, 25 mg/kg/day s.c.) is reported as 25.3 ± 4.9 mg. The “Tissue weight, Uterus” value (estrogen synthesis [3]; Test II, 25 mg/kg/day s.c.) was 104.6 ± 16.6 mg, the “Plasma estradiol-17β level” value (estrogen synthesis [3]; [7]) was 60.5 ± 51.1 pg/mL and the Body weight gain (estrogen synthesis [3]; Test II, 50 mg/kg/day s.c.) was 22.0 ± 1.2 g. For the same compound, the “Tissue weight, Ovaries” value (estrogen synthesis [3]; Test II, 50 mg/kg/day s.c.) was 21.0 ± 2.5 mg, the “Tissue weight, Uterus” value (estrogen synthesis [3]; Test II, 50 mg/kg/day s.c.) was 97.7 ± 16.0 mg and the “Plasma estradiol-17β level” value (estrogen synthesis [3]; [8]) was 63.8 ± 24.3 pg/mL.

For CC1Cc2cc3c(c(O)c2C(=O)O1)C(=O)C(C1=C(N)C(=O)c2cc4c(c(O)c2C1=O)C(=O)OC(C)C4)=C(N)C3=O (centres unmarked) [Compound 6], the IC50 [2] was 7.16 µM, the “Tissue weight, Ovaries” value (estrogen synthesis [3]; Test I, 25 mg/kg/day s.c.) was 32.2 ± 7.0 mg and the “Tissue weight, Uterus” value (estrogen synthesis [3]; Test I, 25 mg/kg/day s.c.) was 102.2 ± 15.5 mg. The “Plasma estradiol-17β level” value (estrogen synthesis [3]; [5]) was 353.2 ± 48.4 pg/mL, the “Tissue weight, Ovaries” value (estrogen synthesis [3]; Test I, 50 mg/kg/day s.c.) was 32.0 ± 2.9 mg and the “Tissue weight, Uterus” value (estrogen synthesis [3]; Test I, 50 mg/kg/day s.c.) was 103.1 ± 11.6 mg. The “Plasma estradiol-17β level” value (estrogen synthesis [3]; [6]) was 326.0 ± 115.1 pg/mL.
